Three molecules from publication PMC6797808, “Fucosylated inhibitors of recently identified bangle lectin from Photorhabdus asymbiotica” (Scientific Reports, 2019) can be followed below.

In experiment [1] the target is T1, PHL (Photorhabdus asymbiotica, UniProt C7BLE4). The experiment can be described thus: Hemagglutination inhibition assay with PHL (papain-treated human RBCs O). The class given is cell-based. The note with it: for MIC (minimal inhibitory concentration, hemagglutination by PHL): RBC O, two independent measurements; for PotencyL-Fuc: MIC L-fucose / MIC ligand; for β L-Fuc (affinity improvement factor): MICbasic unit/(valency × MICligand), basic unit L-Fuc. Here is the method: The set of potential ligands 1–10 with different levels of fucosylation was tested, and their inhibition potency on hemagglutination by PHL was assessed (Table 1, Fig. 2). […] To assess the contribution of valency to the affinity increase, an affinity improvement factor β was calculated as the relationship MICbasic unit/(valency × MICligand).
T1 sequence (C7BLE4 entry or part of it): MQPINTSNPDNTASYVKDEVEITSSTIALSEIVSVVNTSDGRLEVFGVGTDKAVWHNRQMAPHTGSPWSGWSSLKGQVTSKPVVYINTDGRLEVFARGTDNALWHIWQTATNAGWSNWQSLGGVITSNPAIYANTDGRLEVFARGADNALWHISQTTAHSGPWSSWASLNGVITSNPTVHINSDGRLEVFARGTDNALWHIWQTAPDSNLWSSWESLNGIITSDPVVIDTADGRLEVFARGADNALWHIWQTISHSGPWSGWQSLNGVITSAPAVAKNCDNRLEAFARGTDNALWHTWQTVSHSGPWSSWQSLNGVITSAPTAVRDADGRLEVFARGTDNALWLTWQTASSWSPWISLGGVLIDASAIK
Human red blood cells (RBCs) O were processed according to previously published work[16]. In brief, RBCs O treated with sodium citrate were washed four times by PBS buffer (137 mM NaCl, 2.7 mM KCl, 8 mM Na2HPO4, 1.47 mM KH2PO4, pH 7.4), diluted to 50% by PBS with 0.005% (w/w) sodium azide and treated by 0.1% papain for the duration of 30 minutes.
Hemagglutination inhibition assay was performed for specificity and semi-quantitative affinity of the PHL interaction with the compounds. All carbohydrate inhibitors in 50 mM starting concentration were serially diluted in the PBS buffer and used for a determination of the lowest inhibiting concentration. As a blank, the PBS buffer supplemented with the appropriate amount of DMSO was used in order to exclude potential interference with the interaction. The individual samples were mixed with the lectin in concentration 2 mg/ml in a 5 μl:5 μl ratio. Thereafter, 10 μl of 10% RBCs O in PBS buffer was added, thoroughly mixed and incubated for 10 minutes at room temperature. Following incubation, the mixture was again mixed and the reaction was observed on microscope slides using Levenhuk 2L NG microscope with Levenhuk D2L digital camera (Levenhuk, USA). Imagines were obtained via software ToupView for Windows (Levenhuk). The positive (PHL without inhibitor) and negative control (reaction without PHL) were prepared and processed in the same way using the appropriate volume of PBS buffer instead of the not included components. The lowest concentration of inhibitor able to inhibit agglutination was determined and compared with the standard (L-fucose). Minimal inhibitory concentrations (MIC) of synthesised inhibitors were determined from two independent measurements.

For experiment [2], the target named is T1, PHL. The experiment can be described thus: SPR competitive inhibition of PHL binding to α-L-fucoside sensor chip. As to conditions: for IC50: 25 °C, three independent measurements; for β L-Fuc (affinity improvement factor): IC50,basic unit/(valency × IC50,ligand), basic unit L-Fuc; for PotencyL-Fuc: IC50 L-fucose / IC50 ligand. Here is the method: To analyse the competitive inhibition of PHL binding to a multivalent surface, the surface plasmon resonance (SPR) technique was employed. A sensor chip presenting α-L-fucopyranoside residues was treated with a constant concentration of PHL, while an increasing concentration of the ligands was used to determine IC50 (Table 2, Fig. 3). […] To assess the contribution of valency to the affinity increase, an affinity improvement factor β was calculated as the relationship IC50,basic unit/(valency × IC50,ligand)[30].
Surface plasmon resonance (SPR) experiments were performed on a BIAcore T200 instrument (GE Healthcare, UK) at 25 °C, using buffer A supplemented with 0.05% Tween 20 as a running buffer. α-L-fucoside was immobilized onto CM5 sensor chip (GE Healthcare, UK) covered with a carboxymethylated dextran matrix. The sensor chip surface was activated with N-ethyl-N-(3-dimethylaminopropyl)carbodiimide/N-hydroxysuccinimide solution and then coated with streptavidin using the manufacturer’s standard protocol using HBS buffer (10 mM HEPES, 150 mM NaCl, 0.05% Tween 20, pH 7. 5). Unreacted groups were blocked with 1 M ethanolamine-HCl, pH 8.5. Biotinylated carbohydrate (biotinilated monomeric probes, Lectinity, Russia) was injected onto particular measuring channel and pure biotin on blank channel at a flow rate of 5 μl/min.
SPR inhibition measurements were carried out on measuring channel with L-fucoside at a flow rate of 5 µl/min. PHL was diluted to a concentration of 20 μg/ml by the buffer A supplemented with 0.05% Tween 20, mixed 1:1 (v/v) with various concentrations of inhibitors (500–5 μM) in the same buffer and injected onto the sensor chip. The response of lectin bound to the sugar surface at equilibrium was plotted against the concentration of inhibitor in order to determine IC50 (concentration of inhibitor resulting in 50% inhibition of binding). As IC50 is not a constant and depends on the experimental set-up, a parameter called potency was used for characterization. The potency of a tested inhibitor is the ratio of IC50 of a chosen standard inhibitor (in this case L-fucose) and the inhibitor in question. Pure PHL lectin was used as a control (0% inhibition) and channel with pure biotin served as a blank. IC50 was determined from triplicates.

The target of experiment [3] is T1, PHL. The experiment can be described thus: Isothermal titration calorimetry of PHL with ligands. The class given is binding. As to conditions: for n (stoichiometry): two independent measurements; for Potency L-Fuc: KD L-fucose / KD ligand; for β L-Fuc (affinity improvement factor): KD,basic unit/(valency × KD,ligand), basic unit L-Fuc. An excerpt:
The binding of PHL to different α-L-fucoside compounds was further characterized by isothermal titration calorimetry (ITC), enabling determination of the complete thermodynamic profile of the molecular interactions (Table 3, Fig. 4). […] Because of this, it was not possible to evaluate the data, despite the obvious interaction. The dendrimers also cross-linked/aggregated the protein as with calixarenes, however the curves provided clear outcomes with an affinity in the low micromolar range. The dissociation constants (KD) of all dendrimers correlate with their valency – the higher number of fucose, the more decreased KD. […] The stoichiometry value n corresponds to the number of terminal fucoses per ligand molecule. The n value decreases from 4 to 1 as the number of fucose units increases from 1 to 12 (Table 3).
PHL protein in buffer A was equilibrated at room temperature at least for 30 min before ITC measurement. All ITC experiments were performed using ITC200 calorimeter (Malvern Panalytical, UK) at 25 °C. Carbohydrate ligands dissolved in buffer A were used at different concentrations. Protein in the calorimeter cell (50 μM) was titrated by consecutive additions (2 μl) of the ligand (1.5–5 mM) in the syringe while stirring at 1000 rpm. Integrated heat effects were analysed by nonlinear regression using a single-site binding model and global fitting in Origin 7 software (Microcal Instruments)[37]. The thermodynamic parameters of synthesised inhibitors were determined from two independent measurements.
Background: In ITC the heat of successive injections is recorded.

Molecules are shown by their SMILES. Values after ≈ are worked out from the molar mass of the structure shown. Marks after values point to notes of the source that are not given here.

By IC50 is commonly meant the concentration that gives 50% inhibition. Usually Kd stands for the equilibrium constant for the complex coming apart. A high value points to a looser complex. Turning to `C[C@@H]1O[C@@H](CCn2cc(COCC(COCc3cn(CC[C@@H]4O[C@@H](C)[C@@H](O)[C@@H](O)[C@@H]4O)nn3)(COCc3cn(CC[C@@H]4O[C@@H](C)[C@@H](O)[C@@H](O)[C@@H]4O)nn3)COCC(COCc3cn(CC[C@@H]4O[C@@H](C)[C@@H](O)[C@@H](O)[C@@H]4O)nn3)(COCc3cn(CC[C@@H]4O[C@@H](C)[C@@H](O)[C@@H](O)[C@@H]4O)nn3)COCc3cn(CC[C@@H]4O[C@@H](C)[C@@H](O)[C@@H](O)[C@@H]4O)nn3)nn2)[C@@H](O)[C@H](O)[C@@H]1O` [Dendrimer 9], the “MIC (minimal inhibitory concentration, hemagglutination by PHL)” value on PHL [1] amounted to 25 µM (≈ 44.6 µg/mL). Moreover, the PotencyL-Fuc on PHL [1] (hemagglutination) is given as 125; on PHL [1] (hemagglutination, listed as dendrimer 9) it was “more than 100”; on PHL [2], 9,762; on PHL [2] (listed as dendrimer 9) it was 9,800. Besides, the “β L-Fuc (affinity improvement factor)” value on PHL [1] (hemagglutination) is 20.8; at PHL [2] it was 1,631; on PHL [2] (listed as dendrimer 9), “over 1,600”; at PHL [3] (ITC), 19. For the same molecule, the “β Azide1 (affinity improvement factor)” value on PHL [1] (hemagglutination, basic unit azide 1) is on record as 1.3; on PHL [2] (basic unit azide 1), 52; on PHL [3] (ITC, basic unit azide 1), 1. Further, the PotencyAzide1 on PHL [1] (hemagglutination, relative to azide 1) is 8; on PHL [2] (relative to azide 1) it was 311; at PHL [2] (relative to azide 1, listed as dendrimer 9) it was 310; on PHL [3] (ITC, relative to azide 1), 8. The molecule further gave an IC50 on PHL [2] of 0.037 ± 0.003 µM. Moreover, the equilibrium dissociation constant (Kd) at PHL [3] (ITC at 25 °C) was 12.5 ± 0.6 µM; at PHL [3] (ITC at 25 °C, listed as hexavalent dendrimer), 13 µM. For the same molecule, at PHL [3] (ITC at 25 °C), the “−TΔS” value stood at 10.4 ± 0.382 kcal/mol. Further, the “−ΔG” value on PHL [3] (ITC at 25 °C) was 6.69 ± 0.311 kcal/mol. Moreover, on PHL [3] (ITC at 25 °C), the “−ΔH” value came to 17.1 ± 0.19 kcal/mol. Moreover, on PHL [3] (ITC at 25 °C), the “n (stoichiometry)” value was determined as 2.0 ± 0.0. For the same molecule, the “Potency L-Fuc” value at PHL [3] (ITC) is on record as 112.
As to `C[C@@H]1OC(CCCCC2O[C@@H](C)[C@@H](O)[C@@H](O)[C@@H]2O)[C@@H](O)[C@H](O)[C@@H]1O` (stereo partly drawn) [Difucoside 5, 1,4-bis(fucopyranosyl)butane], on PHL [1], the “MIC (minimal inhibitory concentration, hemagglutination by PHL)” value turned out to be 200 µM (≈ 70.1 µg/mL). For the same molecule, at PHL [1] (hemagglutination), the PotencyL-Fuc was determined as 15.6 and the “β L-Fuc (affinity improvement factor)” value is 7.8. This molecule also showed a PotencyL-Fuc at PHL [1] (hemagglutination, listed as difucoside 5) of 16. Also, on PHL [2], the IC50 worked out at 4.18 ± 0.42 µM, the “β L-Fuc (affinity improvement factor)” value is reported as 43 and the PotencyL-Fuc is given as 86. On PHL [3] (ITC at 25 °C), the dissociation constant Kd is 120 ± 11 µM, the “−TΔS” value amounted to 3.61 ± 0.789 kcal/mol, the “−ΔG” value is 5.35 ± 0.502 kcal/mol and the “−ΔH” value is 8.96 ± 0.621 kcal/mol. Moreover, the “n (stoichiometry)” value at PHL [3] (ITC at 25 °C) is recorded as 3.9 ± 0.2. On PHL [3] (ITC), the “Potency L-Fuc” value is 12 and the “β L-Fuc (affinity improvement factor)” value is 6.
For the molecule `C[C@H](O)[C@@H](O)[C@@H](O)[C@H](O)C=O` [L -Fuc, L-fucose, reference compound], the “MIC (minimal inhibitory concentration, hemagglutination by PHL)” value at PHL [1] is given as 3,200 μM. Also, at PHL [1] (hemagglutination), the PotencyL-Fuc came out at 1 and the “β L-Fuc (affinity improvement factor)” value is given as 1. On PHL [2], the IC50 was 362 ± 33 µM, the “β L-Fuc (affinity improvement factor)” value is listed as 1 and the PotencyL-Fuc amounted to 1. Also, on PHL [3] (ITC at 25 °C), the Kd is 1400 µM, the “−TΔS” value came to 10.3 ± 0.239 kcal/mol, the “−ΔG” value stood at 3.9 ± 0.096 kcal/mol and the “−ΔH” value turned out to be 14.2 ± 0.239 kcal/mol. Also, the “n (stoichiometry), fixed during the fitting procedure” value on PHL [3] (ITC at 25 °C, fixed value based on α-Me-Fuc measurement and PHL/BGH crystal structure) is reported as 3*. On PHL [3] (ITC), the “Potency L-Fuc” value is 1 and the “β L-Fuc (affinity improvement factor)” value stood at 1.
